# Experimental data from patent EP2603503B1, “DABIGATRAN ETEXILATE BISMESYLATE SALT, SOLID STATE FORMS AND PROCESS FOR PREPARATION THEREOF” (ratiopharm GmbH, priority 2010, dated 2012).
# Where a name gives a salt, the structure may show the parent alone. Read-outs that look alike come from different tables or passages of the source.
# Assays:
# [1] = solubility in water; format: physicochemical
# [2] = storage stability (temperature / relative humidity); format: physicochemical; conditions: at least two weeks
# [3] = temperature not stated; cited from earlier work
compound,measurement,setting,value
CCCCCCOC(=O)NC(=N)c1ccc(NCc2nc3cc(C(=O)N(CCC(=O)OCC)c4ccccn4)ccc3n2C)cc1 [Dabigatran etexilate bismesylate],solubility in water at 37 °C,[1],33.9 mg/mL
same,stable upon storage,"[2]; about 25°C, relative humidity (RH) about 60%",stable
same,stable upon storage,"[2]; about 40°C, RH about 75%",stable
"CCCCCCOC(=O)NC(=N)c1ccc(NCc2nc3cc(C(=O)N(CCC(=O)OCC)c4ccccn4)ccc3n2C)cc1 [Dabigatran etexilate monomesylate, ethyl 3-{[(2-{[(4-{N'-[(hexyloxy)carbonyl]carbamimidoyl}phenyl)amino]methyl}-1-methyl-1H-benzimid-azol-5-yl)carbonyl] (2-pyridinyl)amino}propanoate mesylate salt, reference compound]",solubility in water at 37 °C,[1]; mesylate salt,14.7 mg/mL
"CCCCCCOC(=O)NC(=N)c1ccc(NCc2nc3cc(C(=O)N(CCC(=O)OCC)c4ccccn4)ccc3n2C)cc1 [Dabigatran etexilate, Ethyl 3-[(2-{[4-(hexyloxycarbonylaminoiminomethyl)phenylamino]methyl}-1-methyl-1H-benzimidazole-5-carbonyl)pyridin-2-ylamino]propionate base]",solubility in water,[3],1.8 mg/mL
